Our source for the Papp A→B, Papp B→A and efflux ratio values is patent US12102648B2, “Orally-bioavailable nucleoside analogs” (priority 2021, dated 2024).

The structures appear in SMILES notation. Where two headings read alike, the source gives them in different places.

The nature of this series: in vitro. Type of series: in vitro ADME. Particulars: human. The gist of the method:
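Caco-2 monolayers cultured 19 days on inserts (TEER >600 […]); bidirectional A-to-B and B-to-A transport at 37° C over 90 min, samples quantified by LC/MS/MS. Papp, efflux ratio and recovery calculated; ER >2 flags potential efflux substrates.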

[1] abbreviates: Caco-2 monolayer, apical to basolateral, 90-minute incubation, read-out: Papp, A-B.
Setting [2] is: Caco-2 monolayer, basolateral to apical, 90-minute incubation, read-out: Papp, B-A.

In the case of `CC(C)(C)C(=O)OCOC(=O)Nc1ncnn2c([C@]3(C#N)O[C@H](COC(=O)[C@@H](N)Cc4ccccc4)[C@@H](OC(=O)CC4CCCCC4)[C@H]3O)ccc12` [Compound 374, (((7-((2R,3R,4S,5R)-5-(((L-phenylalanyl)oxy)methyl)-2-cyano-4-(2-cyclohexylacetoxy)-3-hydroxytetrahydrofuran-2-yl)pyrrolo[2,1-f][1,2,4]triazin-4-yl)carbamoyl)oxy)methyl pivalate], under “Caco-2”, the apparent permeability from apical to basolateral (Papp A→B) at 90 min was determined as 0.004 ×10⁻⁶ cm/s, the Papp B→A at 90 min was 0.08 ×10⁻⁶ cm/s and the efflux ratio at 90 min came to 19.

As to `CC(C)(C)C(=O)OCOC(=O)Nc1ncnn2c([C@]3(C#N)O[C@H](COC(=O)C(C)(C)C4CCCCC4)[C@@H](O)[C@H]3O)ccc12` [Compound 375, ((2R,3S,4R,5R)-5-cyano-3,4-dihydroxy-5-(4-((((pivaloyloxy)methoxy)carbonyl)amino)pyrrolo[2,1-f][1,2,4]triazin-7-yl)tetrahydrofuran-2-yl)methyl 2-cyclohexyl-2-methylpropanoate], under “Caco-2”, the Papp A→B at 90 min was determined as 0.02 ×10⁻⁶ cm/s, the Papp B→A at 90 min is 0.02 ×10⁻⁶ cm/s and the efflux ratio at 90 min came out at 1.1.

For `CCCCOC(=O)Nc1ncnn2c([C@]3(C#N)O[C@H](COC(=O)C(C)(C)C4CCCCC4)[C@@H](O)[C@H]3O)ccc12` [Compound 379, ((2R,3S,4R,5R)-5-(4-((butoxycarbonyl)amino)pyrrolo[2,1-f][1,2,4]triazin-7-yl)-5-cyano-3,4-dihydroxytetrahydrofuran-2-yl)methyl 2-cyclohexyl-2-methylpropanoate], for the setting “Caco-2”, the Papp A→B at 90 min amounted to 1.6 ×10⁻⁶ cm/s, the Papp B→A at 90 min stood at 2.5 ×10⁻⁶ cm/s and the efflux ratio at 90 min came to 1.6.

`Cc1oc(=O)oc1COC(=O)Nc1ncnn2c([C@]3(C#N)O[C@H](COC(=O)Cc4ccccc4)[C@@H](OC(=O)[C@@H](N)C(C)C)[C@H]3O)ccc12` [Compound 383, (2R,3S,4R,5R)-5-cyano-4-hydroxy-5-(4-((((5-methyl-2-oxo-1,3-dioxol-4-yl)methoxy)carbonyl)amino)pyrrolo[2,1-f][1,2,4]triazin-7-yl)-2-((2-phenylacetoxy)methyl)tetrahydrofuran-3-yl L-valinate]: under setting [1], the Papp A→B at 90 min was less than 1 ×10⁻⁶ cm/s. Moreover, the Papp B→A at 90 min under setting [2] was less than 1 ×10⁻⁶ cm/s.

Regarding `Cc1oc(=O)oc1COC(=O)Nc1ncnn2c([C@]3(C#N)O[C@H](COC(=O)CC4CCCCC4)[C@@H](OC(=O)[C@@H](N)C(C)C)[C@H]3O)ccc12` [Compound 385, (2R,3S,4R,5R)-5-cyano-2-((2-cyclohexylacetoxy)methyl)-4-hydroxy-5-(4-((((5-methyl-2-oxo-1,3-dioxol-4-yl)methoxy)carbonyl)amino)pyrrolo[2,1-f][1,2,4]triazin-7-yl)tetrahydrofuran-3-yl L-valinate], where the note is “Caco-2”, the Papp A→B at 90 min is less than 1 ×10⁻⁶ cm/s and the Papp B→A at 90 min is less than 1 ×10⁻⁶ cm/s.

As for `CC(C)(C)[C@@H](N)C(=O)OC[C@H]1O[C@@](C#N)(c2ccc3c(N)ncnn23)[C@H](O)[C@@H]1OC(=O)CC1CCCCC1` [Compound 392], under “Caco-2”, the Papp A→B at 90 min turned out to be 5.6 ×10⁻⁶ cm/s, the Papp B→A at 90 min is 16.4 ×10⁻⁶ cm/s and the efflux ratio at 90 min was found to be 3.

For `CC(C)(C)C(=O)OCOC(=O)Nc1ncnn2c([C@]3(C#N)O[C@H](COC(=O)[C@@H](N)C(C)(C)C)[C@@H](O)[C@H]3O)ccc12` [Compound 395, ((2R,3S,4R,5R)-5-cyano-3,4-dihydroxy-5-(4-((((pivaloyloxy)methoxy)carbonyl)amino)pyrrolo[2,1-f][1,2,4]triazin-7-yl)tetrahydrofuran-2-yl)methyl (S)-2-amino-3,3-dimethylbutanoate], where the note is “Caco-2”, the apical-to-basolateral permeability (Papp A→B) at 90 min was determined as 0.01 ×10⁻⁶ cm/s, the Papp B→A at 90 min is 0.24 ×10⁻⁶ cm/s and the efflux ratio at 90 min worked out at 19.2.

As to `CC(C)(C)[C@H](N)C(=O)O[C@H]1[C@@H](O)[C@](C#N)(c2ccc3c(N)ncnn23)O[C@@H]1COC(=O)CC1CCCCC1` [Compound 397, (2R,3S,4R,5R)-5-(4-aminopyrrolo[2,1-f][1,2,4]triazin-7-yl)-5-cyano-2-((2-cyclohexylacetoxy)methyl)-4-hydroxytetrahydrofuran-3-yl (S)-2-amino-3,3-dimethylbutanoate], under “Caco-2”, the Papp A→B at 90 min stood at 2.8 ×10⁻⁶ cm/s, the Papp B→A at 90 min amounted to 7.3 ×10⁻⁶ cm/s and the efflux ratio at 90 min is 2.6.

As to `CC(C)C(=O)Nc1ncnn2c([C@]3(C#N)O[C@H](COC(=O)Cc4ccccc4)[C@@H](OC(=O)[C@@H](N)C(C)(C)C)[C@H]3O)ccc12` [Compound 401, (2R,3S,4R,5R)-5-cyano-4-hydroxy-5-(4-isobutyramidopyrrolo[2,1-f][1,2,4]triazin-7-yl)-2-((2-phenylacetoxy)methyl)tetrahydrofuran-3-yl (S)-2-amino-3,3-dimethylbutanoate], the Papp A→B at 90 min under setting [1] was found to be 3.8 ×10⁻⁶ cm/s. Further, the Papp B→A at 90 min under setting [2] worked out at 15.3 ×10⁻⁶ cm/s. In addition, where the note is “Caco-2 monolayer, ER>2 indicates potential efflux transporter substrate, read-out: ER (efflux ratio)”, the efflux ratio at 90 min stood at 4.1.

Regarding `CCCC(=O)Nc1ncnn2c([C@]3(C#N)O[C@H](COC(=O)CC4CCCCC4)[C@@H](OCOC(=O)C(C)(C)C)[C@H]3O)ccc12` [Compound 409, (((2R,3S,4R,5R)-5-(4-butyramidopyrrolo[2,1-f][1,2,4]triazin-7-yl)-5-cyano-2-((2-cyclohexylacetoxy)methyl)-4-hydroxytetrahydrofuran-3-yl)oxy)methyl pivalate], where the note is “Caco-2”, the Papp A→B at 90 min was determined as 0.46 ×10⁻⁶ cm/s, the Papp B→A at 90 min came to 0.1 ×10⁻⁶ cm/s and the efflux ratio at 90 min is 0.22.

`CC(C)(C)[C@H](N)C(=O)OC[C@H]1O[C@@](C#N)(c2ccc3c(N)ncnn23)[C@H](O)[C@@H]1O` [Compound 410, ((2R,3S,4R,5R)-5-(4-aminopyrrolo[2,1-f][1,2,4]triazin-7-yl)-5-cyano-3,4-dihydroxytetrahydrofuran-2-yl)methyl (S)-2-amino-3,3-dimethylbutanoate]: under “Caco-2”, the Papp A→B at 90 min came out at 0.47 ×10⁻⁶ cm/s, the Papp B→A at 90 min turned out to be 1.49 ×10⁻⁶ cm/s and the efflux ratio at 90 min is 3.2.

For the compound `CC(C)(C)[C@@H](N)C(=O)OC[C@H]1O[C@@](C#N)(c2ccc3c(N)ncnn23)[C@H](O)[C@@H]1O` [Compound 411, ((2R,3S,4R,5R)-5-(4-aminopyrrolo[2,1-f][1,2,4]triazin-7-yl)-5-cyano-3,4-dihydroxytetrahydrofuran-2-yl)methyl (R)-2-amino-3,3-dimethylbutanoate], under “Caco-2”, the Papp A→B at 90 min stood at 0.12 ×10⁻⁶ cm/s, the Papp B→A at 90 min amounted to 2.5 ×10⁻⁶ cm/s and the efflux ratio at 90 min worked out at 20.7.

On to `CC(=O)O[C@H]1[C@@H](OC(C)=O)[C@](C#N)(c2ccc3c(N)ncnn23)O[C@@H]1COC(=O)C(C)(C)C1CCCCC1` [Compound 412, (2R,3R,4R,5R)-2-(4-aminopyrrolo[2,1-f][1,2,4]triazin-7-yl)-2-cyano-5-(((2-cyclohexyl-2-methylpropanoyl)oxy)methyl)tetrahydrofuran-3,4-diyl diacetate], for which, under “Caco-2”, the Papp A→B at 90 min was 5.1 ×10⁻⁶ cm/s, the Papp B→A at 90 min was determined as 0.9 ×10⁻⁶ cm/s and the efflux ratio at 90 min was 0.2.

For `CC(=O)N[C@H](C(=O)OC[C@H]1O[C@@](C#N)(c2ccc3c(N)ncnn23)[C@H](O)[C@@H]1OC(=O)CC1CCCCC1)C(C)(C)C` [Compound 413, ((2R,3S,4R,5R)-5-(4-aminopyrrolo[2,1-f][1,2,4]triazin-7-yl)-5-cyano-3-(2-cyclohexylacetoxy)-4-hydroxytetrahydrofuran-2-yl)methyl (S)-2-acetamido-3,3-dimethylbutanoate], where the note is “Caco-2”, the Papp A→B at 90 min turned out to be 4.3 ×10⁻⁶ cm/s, the Papp B→A at 90 min was 13.8 ×10⁻⁶ cm/s and the efflux ratio at 90 min was 3.2.

For orientation: Papp A→B means how fast a substance crosses the layer from the apical side. As usually defined, the Papp B→A is how fast a substance crosses the layer from the basolateral side.
